Counter-ions that a name gives are not always drawn.
What was measured:
hROMK (hKir1.1) = hROMK (hKir1.1) (Homo sapiens (Human), UniProt P48048); test: Thallium Flux Assay (ROMK channel functional thallium flux, FLIPR-Tetra); type: cell-based; settings: HEK293 cells stably expressing hROMK (hKir1.1); read-out: Thallium Flux IC50
Procedure: HEK293 cells stably expressing hROMK (hKir1.1) were grown at 37° C. in a 10% CO2 humidified incubator in complete growth media: Dulbecco's Modified Eagle Medium supplemented with non-essential amino acids, Penicillin/Streptomycin/Glutamine, G418 and FBS. At >80% confluency, aspirate the media from the flask and rinse with 10 mL Calcium/Magnesium-free PBS. […] To dislodge the cell, gently bang the side of the flask with your hand. Triturate the cells completely and then transfer the cells to 25 mL complete media. Centrifuge at 1,500 rpm for 6 min followed by resuspension in complete growth media and determine cell concentration.
Compound Buffer (per microplate): 20 mL Probenecid/Assay Buffer; 0.3 mM ouabain (10 mM ouabain in water can be stored in amber bottle/aluminum foil at room temperature); Test compound
Stimulant Buffer (prepared at 5× final concentration in 1× FluxOR™ Chloride-Free Buffer): 7.5 mM Thallium sulfate and […] (to give a final assay concentration of 3 mM Thallium/0.3 mM Potassium). Store at 4° C. when not in use. If kept sterile, this solution is good for months.
The ROMK channel functional thallium flux assay is performed in 384 wells, using the FLIPR-Tetra instrument. HEK-hKir1.1 cells are seeded in Poly-D-Lysine microplates and kept in a 37° C.-10% CO2 incubator overnight. On the day of the experiment, the growth media is replaced with the FluxOR™ reagent loading buffer and incubated, protected from light, at ambient temperature (23-25° C.) for 90 min. The loading buffer is replaced with assay buffer±test compound followed by 30 min incubation at ambient temperature, where the Thallium/Potassium stimulant is added to the microplate.
1. Seed HEK-hKir1.1 cells (50 μl at 20,000 cells/well) in 384-well PDL coated Microplates
2. Allow cells to adhere overnight in humidified 37° C./10% CO2 incubator
3. Completely remove cell growth media from microplate and replace with 25 μl loading buffer
4. Incubate Microplate at room temperature, protected form light, for 90 min
5. Remove loading buffer and replace with 25 μl 1× Assay Buffer±test compound.
6. Incubate microplate at room temperature, protected from light, for 30 min
7. […] Excitation=400 nm, Emission=460 & 580 nm. Collect data for ˜10 min.
The fluorescence intensity of wells containing 3 μM of a standard control ROMK inhibitor of the present invention is used to define the ROMK-sensitive component of thallium flux. Fluorescence in the presence of test compounds is normalized to control values to provide % fluorescence change.

Kir1.1 (ROMK1) = Kir1.1 (ROMK1) (Homo sapiens (Human), UniProt P48048); test: Electrophysiology Assay (whole cell voltage clamp, IonWorks Quattro); type: cell-based; settings: Chinese hamster ovary cells stably expressing Kir1.1; block during voltage step to 0 mV; read-out: Electrophysiology IC50
Procedure: Chinese hamster ovary cells stably expressing Kir1.1 channels were maintained in T-75 flasks in cell culture media in a humidified 10% CO2 incubator at 37° C. Prior to an experiment, Kir1.1 expression was induced by overnight incubation with 1 mM sodium butyrate. […] After centrifugation, the cell pellet was resuspended in approximately 4.0 mL of bath solution and placed in the IonWorks instrument. The intracellular solution consisted of (in mM): 80 K gluconate, 40 KCl, 20 KF, 3.2 MgCl2, 3 EGTA, 5 Hepes, pH 7.4. Electrical access to the cytoplasm was achieved by perforation in 0.13 mg/mL amphotericin B for 4 min. […] Voltage protocols and current recordings were performed using the IonWorks HT software/hardware system. Currents were sampled at 1 kHz. No correction for liquid junction potentials was used. The test pulse, consisting of a 100 ms step to 0 mV from a holding potential of −70 mV, followed by a 100 ms voltage ramp from −70 mV to +70 mV, was applied before and after a 6 min compound incubation period. Test compounds were prepared by diluting DMSO stock solutions into the bath solution at 3× the final concentration and placed in the instrument in 96-well polypropylene plates. Current amplitudes were measured using the IonWorks software.

Kir1.1 (ROMK1), sequence (P48048 whole entry, species assumed): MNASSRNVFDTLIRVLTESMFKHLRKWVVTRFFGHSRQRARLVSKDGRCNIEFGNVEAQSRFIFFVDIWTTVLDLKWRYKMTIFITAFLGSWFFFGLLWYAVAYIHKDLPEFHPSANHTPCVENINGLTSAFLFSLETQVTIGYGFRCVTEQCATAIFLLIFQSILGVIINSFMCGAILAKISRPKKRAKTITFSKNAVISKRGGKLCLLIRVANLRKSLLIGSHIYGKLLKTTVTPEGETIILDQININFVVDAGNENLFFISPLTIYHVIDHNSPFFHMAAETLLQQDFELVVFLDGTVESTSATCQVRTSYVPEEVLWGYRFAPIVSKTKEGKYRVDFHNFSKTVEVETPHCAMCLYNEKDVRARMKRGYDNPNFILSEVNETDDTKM
hROMK (hKir1.1), sequence (P48048 whole entry): as the sequence (P48048 whole entry, species assumed) above

Structure (SMILES) | IC50 (hROMK (hKir1.1)) | IC50 (Kir1.1 (ROMK1))
Cc1c(C(O)CN2CCN3C[C@@H](c4ccc5c(c4C)COC5=O)OC[C@@H]3C2)ccc(F)c1C#N (stereo partly drawn) [Example 13, (3R,9aS)-8-[2-(3-cyano-4-fluoro-2-methylphenyl)-2-hydroxyethyl]-3-(4-methyl-1-oxo-1,3-dihydro-2-benzofuran-5-yl)octahydropyrazino[2,1-c][1,4]oxazin-5-ium trifluoroacetate] | 270 nM | 220 nM
Cc1c([C@@H]2CN3CCN(CCc4ccc(-n5cnnn5)nc4)C[C@H]3CO2)ccc(F)c1C#N [Example 92] | 270 nM | 80 nM
Cc1c(CCN2CCN3C[C@H](c4ccc5c(c4Cl)COC5=O)OC[C@@H]3C2)ccc2c1COC2=O [Example 89] | 200 nM | 100 nM
COc1cc([C@@H]2CN3CCN(CCc4ccc5c(c4C)COC5=O)C[C@H]3CO2)ccc1C#N [Example 71] | 110 nM | 200 nM
Cc1c([C@@H]2CN3CCN(CC(O)c4ccc5c(c4)C[C@H](C)OC5=O)C[C@H]3CO2)ccc2c1COC2=O (single isomer, unassigned) [Example 45] | 470 nM | 120 nM
COc1c([C@@H]2CN3CCN(C[C@H](O)c4ccc5c(c4C)COC5=O)C[C@@H]3CO2)ccc(C#N)c1F [Example 32, (3R,9aR)-3-(4-cyano-3-fluoro-2-methoxyphenyl)-8-[(2R)-2-hydroxy-2-(4-methyl-1-oxo-1,3-dihydro-2-benzofuran-5-yl)ethyl]octahydropyrazino[2,1-c][1,4]oxazin-8-ium chloride] | 280 nM | 180 nM
Cc1c([C@@H]2CN3CCN(CC(O)c4ccc5c(c4C4CC4)COC5=O)C[C@H]3CO2)ccc2c1COC2=O (single isomer, unassigned) [Example 50] | 440 nM | 250 nM
Cc1c([C@@H]2CN3CCN(CCc4ccc5c(c4)COC5=O)C[C@H]3CO2)ccc2c1COC2=O [Example 64] | 40 nM | 40 nM
Cc1c([C@H](O)CN2CCN3C[C@@H](c4ccc5c(c4)COC5=O)OC[C@@H]3C2)ccc2c1COC2=O [Example 12, (3R,9aS)-8-[(2S)-2-hydroxy-2-(4-methyl-1-oxo-1,3-dihydro-2-benzofuran-5-yl)ethyl]-3-(1-oxo-1,3-dihydro-2-benzofuran-5-yl)octahydropyrazino[2,1-c][1,4]oxazin-5-ium chloride] | 190 nM | 30 nM
Cc1c([C@@H]2CN3CCN(CC(O)c4cc(F)c(C#N)c(F)c4)C[C@H]3CO2)ccc2c1COC2=O (single isomer, unassigned) [Example 49] | 250 nM | 50 nM
COc1cc(CCN2CCN3C[C@H](c4ccc5c(c4C)COC5=O)OC[C@H]3C2)ccc1C#N [Example 61] | 330 nM | 120 nM
COc1cc([C@H]2CN3CCN(CCc4ccc5c(c4C)COC5=O)C[C@@H]3CO2)ccc1C#N [Example 75] | 110 nM | 70 nM
COc1cc(C(O)CN2CCN3C[C@@H](c4ccc5c(c4C)COC5=O)OC[C@@H]3C2)c(F)cc1C#N (single isomer, unassigned) [Example 37] | 470 nM | 110 nM
Cc1c([C@H]2CN3CCN(CC(O)c4ccc(-n5cnnn5)nc4)C[C@H]3CO2)ccc(F)c1C#N (single isomer, unassigned) [Example 18] | 290 nM | 100 nM
Cc1c(CCN2CCN3C[C@@H](c4ccc5c(c4)COC5=O)OC[C@@H]3C2)ccc2c1COC2=O [Example 69] | 60 nM | 20 nM
Cc1c([C@H]2CN3CCN(CCc4ccc5c(c4)COC5=O)C[C@@H]3CN2)ccc(F)c1C#N [Example 106] | 130 nM | 50 nM
Cc1cc2c(cc1C(O)CN1CCN3C[C@@H](c4ccc5c(c4C)COC5=O)OC[C@@H]3C1)COC2=O (single isomer, unassigned) [Example 42] | 220 nM | 80 nM
Cc1c([C@@H]2CN3CCN(CCc4ccc5c(c4)COC5=O)C[C@H]3CN2)ccc(F)c1C#N [Example 103] | 140 nM | 60 nM
COc1cc([C@H]2CN3CCN(CC(O)c4cc(OC)c(C#N)cc4F)C[C@@H]3CO2)ccc1C#N (stereo partly drawn) [Example 14, (3S,9aR)-8-[2-(4-cyano-2-fluoro-5-methoxyphenyl)-2-hydroxyethyl]-3-(4-cyano-3-methoxyphenyl)octahydropyrazino[2,1-c][1,4]oxazin-5-ium chloride] | 580 nM | 270 nM
Cc1c([C@@H]2CN3CCN(CCc4ccc5c(c4)COC5=O)C[C@@H]3CN2)ccc(F)c1C#N [Example 105] | 290 nM | 150 nM
Cc1c(CCN2CCN3C[C@@H](c4ccc(F)c(C#N)c4)OC[C@@H]3C2)ccc2c1COC2=O [Example 72] | 150 nM | 160 nM
COc1cc(CCN2CCN3C[C@@H](c4ccc5c(c4C)COC5=O)NC[C@@H]3C2)ccc1C#N [Example 101, 2-Methoxy-4-(2-((7R,9aR)-7-(4-methyl-1-oxo-1,3-dihydroisobenzofuran-5-yl)hexahydro-1H-pyrazino[1,2-a]pyrazin-2(6H)-yl)ethyl)benzonitrile] | 210 nM | 100 nM
Cc1c([C@H]2CN3CCN(CCc4ccc5c(c4)COC5=O)C[C@H]3CN2)ccc(F)c1C#N [Example 104] | 110 nM | 400 nM
COc1c(CCN2CCN3C[C@H](c4ccc5c(c4C)COC5=O)OC[C@@H]3C2)ccc(C#N)c1F [Example 96] | 210 nM | 80 nM
Cc1c([C@@H]2CN3CCN(CCc4ccc5c(c4Br)COC5=O)C[C@H]3CO2)ccc2c1COC2=O [Example 91] | 90 nM | 210 nM
Cc1c(CCN2CCN3C[C@@H](c4ccc5c(c4C)COC5=O)OC[C@@H]3C2)ccc2c1COC2=O [Example 57, 4-Methyl-5-((3R,9aS)-8-(2-(4-methyl-1-oxo-1,3-dihydroisobenzofuran-5-yl)ethyl)octahydropyrazino[2,1-c][1,4]oxazin-3-yl)isobenzofuran-1(3H)-one] | 30 nM | 90 nM
Cc1c([C@H]2CN3CCN(C[C@H](O)c4ccc5c(c4)COC5=O)C[C@@H]3CN2)ccc(F)c1C#N [Example 108] | 100 nM | 100 nM
Cc1c([C@@H]2CN3CCN(C4CCc5cc(C#N)ccc5C4)C[C@H]3CO2)ccc2c1COC2=O (stereo partly drawn) [Example 100, (3R,9aS)-8-(6-cyano-1,2,3,4-tetrahydronaphthalen-2-yl)-3-(4-methyl-1-oxo-1,3-dihydro-2-benzofuran-5-yl)octahydropyrazino[2,1-c][1,4]oxazin-5-ium trifluoroacetate] | 30 nM | 210 nM
Cc1c([C@@H](O)CN2CCN3C[C@@H](c4cc(F)c(C#N)c(F)c4)OC[C@@H]3C2)ccc2c1COC2=O [Example 52, (3R,9aS)-3-(4-cyano-3,5-difluorophenyl)-8-[(2R)-2-hydroxy-2-(4-methyl-1-oxo-1,3-dihydro-2-benzofuran-5-yl)ethyl]octahydropyrazino[2,1-c][1,4]oxazin-8-ium chloride] | 410 nM | 100 nM

Source: US9604998B2, “Inhibitors of the renal outer medullary potassium channel” (MERCK SHARP & DOHME CORP., priority 2013, dated 2017)
